Source: paper PMC7914117, “Ginkgolic acid and anacardic acid are specific covalent inhibitors of SARS-CoV-2 cysteine proteases” (Cell & Bioscience, 2021)

Columns and labels:
SARS-CoV-2 PL^pro = SARS-CoV-2 PL^pro (Severe acute respiratory syndrome coronavirus 2, UniProt P0DTD1); assay: SARS-CoV-2 PLpro fluorescence-based enzymatic inhibition assay (Z-RLRGG-AMC substrate); format: biochemical; conditions: for IC50: mean ± SD, triplicate, read-out: IC50 against PL^pro enzymatic activity; for inhibition at 20 µM: read-out: inhibition against PL^pro in high-throughput screen
SARS-CoV-2 3CL^pro = SARS-CoV-2 3CL^pro (Severe acute respiratory syndrome coronavirus 2, UniProt P0DTD1); assay: SARS-CoV-2 3CLpro FRET enzymatic inhibition assay; format: biochemical; conditions: for IC50: 250 nM 3CLpro, 4 mM DTT, 30 min pre-incubation, 50 µM substrate, mean ± SD, triplicate, read-out: IC50 against 3CL^pro enzymatic activity; for IC50 shift upon addition of reducing reagent: 3CLpro assay in absence or presence of 4 mM DTT; for sensitivity of 3CLpro compared to PLpro: ratio of IC50 values, PLpro vs 3CLpro
Experimental: The SARS-CoV-2 3CL^pro was prokaryotic expressed and purified as previously described with slight modification. For enzymatic inhibition assay, the recombinant 3CL^pro (250 nM at a final concentration) was incubated with increasing concentrations of each compound in 90 µL reaction buffer (50 mM Tris–HCl, pH 7.3, 1 mM EDTA, 4mM DTT) for 30 min [6]. The reaction was initiated by adding 10 µL FRET-based peptidic substrate (Dabcyl-KTSAVLQ/SGFRKME-Edans) with a final concentration of 50 µM. The fluorescence signal was immediately measured every 20 s for 30 min using a Bio-Tek Synergy4 plate reader with filters for excitation at 336/20 nm and emission at 490/20 nm. The V0 of reactions were calculated to indicate the enzymatic activities. Three independent experiments were performed and IC50 curves were analyzed using four-parameter logistic regression in GraphPad Prism software.
For mechanism of action study, various concentrations of ginkgolic acid were mixed and incubated with increasing concentrations of 3CL^pro (100–1000 nM) in 90 µL reaction buffer for 30 min. Reactions were initiated by adding 10 µL substrate with a final concentration of 50 µM. At each concentration of ginkgolic acid, the V0s were plotted with the concentrations of 3CL^pro, and the data was fitted using linear regression analysis in GraphPad Prism software.

[1] = Cell-Titer Glo cytotoxicity assay; format: cell-based; conditions: African green monkey, Vero-E6 cells; for CC50 at 48 h: mean ± SD, triplicate; for viability at 48 h, 20 µM: at 20 µM
Experimental: (§1) To estimate the cytotoxicity of test compounds on VERO-E6 cells, Cell-Titer Glo® luminescent cell viability assay (Promega) was performed according to the manufacturer’s instruction. […] The half of the cytotoxic concentration (CC50) values were calculated from the percentages of cells whose viability was inhibited by test compounds at various concentrations.

Vero-E6 cells = assay: Cell-Titer Glo cytotoxicity assay; format: cell-based; conditions: 48 h, mean ± SD, triplicate
Experimental: as §1

[2] = 100 nM PLpro, 4 mM DTT, 30 min pre-incubation, 30 µM substrate
[3] = compounds at 20 µM, 100 nM PLpro, 30 min pre-incubation, 4 mM DTT, 30 µM substrate, RFU at 10 min

## CCCCCCCCCCCCCCCc1cccc(O)c1C(=O)O [anacardic acid]
SARS-CoV-2 PL^pro; [2]
  IC50: 17.1 ± 1.3 µM
SARS-CoV-2 PL^pro; [3]
  inhibition at 20 µM: > 50%
SARS-CoV-2 3CL^pro
  IC50: 2.07 ± 0.35 µM
  IC50 shift upon addition of reducing reagent: no significant IC50 shift
  sensitivity of 3CLpro compared to PLpro: about 10 times
[1]
  CC50 at 48 h: 25.5 ± 0.69 µM
  viability at 48 h, 20 µM: > 90%
Vero-E6 cells
  CC10: 22.27 ± 0.26 µM

## CCCCCC/C=C\CCCCCCCc1cccc(O)c1C(=O)O [ginkgolic acid]
SARS-CoV-2 PL^pro; [2]
  IC50: 16.3 ± 0.64 µM
SARS-CoV-2 PL^pro; V0 vs enzyme concentration (25–150 nM) at different inhibitor concentrations
  type of enzymatic inhibition of PL^pro: irreversible inhibitor
SARS-CoV-2 PL^pro; [3]
  inhibition at 20 µM: > 50%
SARS-CoV-2 3CL^pro
  IC50: 1.79 ± 0.58 µM
  IC50 shift upon addition of reducing reagent: no significant IC50 shift
  sensitivity of 3CLpro compared to PLpro: about 10 times
SARS-CoV-2 3CL^pro; V0 vs enzyme concentration (100–1000 nM) at different inhibitor concentrations
  type of enzymatic inhibition of 3CL^pro: irreversible inhibitor
[1]
  CC50 at 48 h: 27.9 ± 0.77 µM
  viability at 48 h, 20 µM: > 90%
Vero-E6 cells
  CC10: 21.38 ± 0.52 µM

## C/C1=C2/[N-][C@H]([C@H](CC(N)=O)[C@@]2(C)CCC(=O)NC[C@@H](C)OP(=O)([O-])O[C@H]2[C@@H](O)[C@@H](n3cnc4cc(C)c(C)cc43)O[C@@H]2CO)[C@]2(C)N=C(/C(C)=C3N=C(/C=C4N=C1[C@@H](CCC(N)=O)C\4(C)C)[C@@H](CCC(N)=O)[C@]\3(C)CC(N)=O)[C@@H](CCC(N)=O)[C@]2(C)CC(N)=O.[CH3-].[Co+3] [methylcobalamin, reference compound]
SARS-CoV-2 PL^pro; [3]
  inhibition against PL^pro in high-throughput screen: more than 50%
